Measured values from US20120016010A1, “RNA Interference Mediated Inhibition of BTB and CNC Homology 1, Basic Leucine Zipper Transcription Factor 1 (BACH1) Gene Expression Using Short Interfering Nucleic Acid (siNA)” (Merck Sharp & Dohme Corp, priority 2009, published 2012).
[invAb] = inverted abasic unit; d = 2'-deoxy (DNA); m = 2'-O-methyl; r = 2'-OH (RNA); f = 2'-fluoro

Experiments:
Bach1 mRNA [1] = test: Initial screen: Bach1 mRNA knock-down in mouse NIH 3T3 cells (96-well transfection, quantitative RT-PCR); type: cell-based; details: mouse NIH3T3 cells, n = 2, 24 hrs post-transfection, protocol 10 nM siNA
Experimental: (§1) All cells were obtained from ATCC (Manassas, Va.) unless otherwise indicated. Cells were grown and transfected under standard conditions, which are detailed below for each cell line.
(§2) Cells were plated in all wells of a tissue-culture treated, 96-well plate at a final count of 5000 cells/well in 100 μL of the appropriate culture media. The cells were cultured for 24 hours after plating at 37° C. in the presence of 5% CO2.
(§3) After 24 hours, complexes containing siNA and RNAiMax were created as follows: A solution of RNAiMax diluted 33-fold in OPTI-MEM was prepared. […] After incubation of RNAiMax/OPTI-MEM solution at room temperature for 5 min, an equal volume of the siNA solution and the RNAiMax solution were added together for each of the siNAs.
(§4) This solution was incubated at room temperature for 20 minutes. After incubation, 20 uL of the solution was added to each of the relevant wells. The final concentration of siNA in each well was 10 nM and the final volume of RNAiMax in each well was 0.3 ul. […]
(§5) Briefly, a 60 uL (1 plate) or 110 uL (2 plates) of the Lysis Solution with DNase I was dispensed into each well of the Lysis Buffer Plate (twin.tec full skirt plate). The lysis buffer and stop plates were stored at 4° C. until the cells were washed.
(§6) The plate was spun at 1100 rpm for 5 minutes. The culture medium was aspirated and discarded from the wells of the culture plate. The lysis was performed automatically using a BioMek FX instrument and method. After the Biomek method was completed, the lysis plate was incubated for 2 min at room temperature. The lysis plate can be stored for 2 hours at 4° C., or at −20° C. or −80° C. for two months.
(§7) Each well of the reverse transcription plate required 10 uL of 2× reverse transcriptase Buffer, 1 uL of 20× reverse transcription enzyme and 2 uL of nuclease-free water. The reverse transcription master mix was prepared by mixing 2× reverse transcription buffer, 20× reverse transcription enzyme mix, and nuclease-free water. 13 uL of the reverse transcription master mix was dispensed into each well of the reverse transcription plate (semi-skirted). A separate reverse transcription plate was prepared for each cell plate. The plate was loaded onto a Biomek NX or Biomek FX Dual −96 and the Biomek method was run. The program is programmed to automatically added 7 uL of lysate from the cell lysis procedure described above into each well of the reverse transcription plate. The plate is sealed and spun on a centrifuge (1000 rpm for 30 seconds) to settle the contents to the bottom of the reverse transcription plate. The plate is placed in a thermocycler at 37° C. for 60 min, 95° C. for 5 min, and 4° C. until the plate is removed from the thermocycler. Upon removal, if not used immediately, the plate was frozen at −20° C.
(§8) A series of probes and primers were used to detect the various mRNA transcripts of the genes of Bach1, HMOX-1, and GAPDH in mouse and human cell lines. The assays were performed on an ABI 7900 instrument, according to the manufacturer's instructions. […] The PCR reactions were carried out at 50° C. for 2 min, 95° C. for 20 min followed by 40 cycles at 95° C. for 15 secs and 60° C. for 1 min
(§9) Within each experiment, the […] was set in the exponential phase of the amplification curve, and based on the intersection point of the baselines with the amplification curve, a Ct value was assigned by the instrument.
(§10) The expression level of the gene of interest and % knock-down was calculated using Comparative Ct method:
(§11) ΔCt=ΔCt(Target siRNA)−ΔCt(NTC)
(§12) Relative expression level=2^−ΔΔCt
(§13) The non-targeting control siNA was, unless otherwise indicated, chosen as the value against which to calculate the % knock-down, because it is the most relevant control.

Bach1 mRNA [2] = test: Initial screen: Bach1 mRNA knock-down in human A549 cells (96-well transfection, quantitative RT-PCR); type: cell-based; details: Bach1 mRNA, 10 nM siNA, human A549 cells, n = 2, mean ± S.D., normalized to GAPDH and non-targeting control, 24 hrs post-transfection
Experimental: as §1, §2, §3, §4, §5, §6, §7, §8, §9, §10, §11, §12, §13

| Substance | % KD (Bach1 mRNA [1]) [%] | % KD (Bach1 mRNA [2]) |
| --- | --- | --- |
| 29969-DC: Bach1 siNA duplex, target site 1790 (mouse); sense B GAuuuccAAuccuuGuuGA TTB (SEQ 87); antisense UCAAcAAGGAuuGGAAAucUU (SEQ 88) (sense GAUUUCCAAUCCUUGUUGATT; antisense UCAACAAGGAUUGGAAAUCUU; sense: DNA at AGT, 2'-fluoro at CU, [invAb] at 5' end, 3' end, backbone not given here; antisense: sugars from the 5' end rrrmfmmmmmffmmmmmffmm, backbone not given here) | 72.7 ± 4.5 | 36 ± 7.3% |
| 29968-DC: Bach1 siNA duplex, target site 671 (mouse); sense B GcAGAuGAAuucuuGGAAA TTB (SEQ 85); antisense UUUccAAGAAuucAucuGcUU (SEQ 86) (sense GCAGAUGAAUUCUUGGAAATT; antisense UUUCCAAGAAUUCAUCUGCUU; sense: DNA at AGT, 2'-fluoro at CU, [invAb] at 5' end, 3' end, backbone not given here; antisense: sugars from the 5' end rrrffmmmmmfffmfffmfmm, backbone not given here) | 71 ± 8.7 | 28.2 ± 3.7% |
| 29954-DC: Bach1 siNA duplex, target site 1389; sense B cAGAAcAGAucucAcAGAA TTB (SEQ 57); antisense UCCuGuGAGAucuGuucuGUU (SEQ 58) (sense CAGAACAGAUCUCACAGAATT; antisense UCCUGUGAGAUCUGUUCUGUU; sense: DNA at AGT, 2'-fluoro at CU, [invAb] at 5' end, 3' end, backbone not given here; antisense: sugars from the 5' end rrrfmfmmmmfffmffffmmm, backbone not given here) | −10.2 ± 10.1 | 63.4 ± 0.9% |
| 29979-DC: Bach1 siNA duplex, target site 1523 (mouse); sense B cGGAcuuucAcAAcucucA TTB (SEQ 107); antisense UGAGAGuuGuGAAAGuccGUU (SEQ 108) (sense CGGACUUUCACAACUCUCATT; antisense UGAGAGUUGUGAAAGUCCGUU; sense: DNA at AGT, 2'-fluoro at CU, [invAb] at 5' end, 3' end, backbone not given here; antisense: sugars from the 5' end rrrmmmffmfmmmmmfffmmm, backbone not given here) | 62.4 ± 2.6 | −18.1 ± 18^ % |
| 29963-DC: Bach1 siNA duplex, target site 362; sense B GGAuuuGAAccuuuAAuuc TTB (SEQ 75); antisense GAAuuAAAGGuucAAAuccUU (SEQ 76) (sense GGAUUUGAACCUUUAAUUCTT; antisense GAAUUAAAGGUUCAAAUCCUU; sense: DNA at AGT, 2'-fluoro at CU, [invAb] at 5' end, 3' end, backbone not given here; antisense: sugars from the 5' end rrrffmmmmmfffmmmfffmm, backbone not given here) | 18.5 ± 2.2 | 32.9 ± 3.4% |
| 29967-DC: Bach1 siNA duplex, target site 494 (mouse); sense B GAGuuucuAAGcGuAcAcA TTB (SEQ 83); antisense UGUGuAcGcuuAGAAAcucUU (SEQ 84) (sense GAGUUUCUAAGCGUACACATT; antisense UGUGUACGCUUAGAAACUCUU; sense: DNA at AGT, 2'-fluoro at CU, [invAb] at 5' end, 3' end, backbone not given here; antisense: sugars from the 5' end rrrmfmfmfffmmmmmfffmm, backbone not given here) | 34.7 ± 8.4 | 34.6 ± 6.7% |
| 29976-DC: Bach1 siNA duplex, target site 1585 (mouse); sense B cuGcucAAGcAAcuuGGAA TTB (SEQ 101); antisense UUCcAAGuuGcuuGAGcAGUU (SEQ 102) (sense CUGCUCAAGCAACUUGGAATT; antisense UUCCAAGUUGCUUGAGCAGUU; sense: DNA at AGT, 2'-fluoro at CU, [invAb] at 5' end, 3' end, backbone not given here; antisense: sugars from the 5' end rrrfmmmffmfffmmmfmmmm, backbone not given here) | −1.2 ± 11.6 | 17.5 ± 1.7% |
| 29955-DC: Bach1 siNA duplex, target site 737; sense B GAGuccAuGuGcuuAGAGA TTB (SEQ 59); antisense UCUcuAAGcAcAuGGAcucUU (SEQ 60) (sense GAGUCCAUGUGCUUAGAGATT; antisense UCUCUAAGCACAUGGACUCUU; sense: sugars from the 5' end rrrfffdfdfdfffddddddd, [invAb] at 5' end, 3' end, backbone not given here; antisense: sugars from the 5' end rrrffmmmfmfmfmmmfffmm, backbone not given here) | −12.2 ± 4.3 | 14.6 ± 0.2% |
| 29952-DC: Bach1 siNA duplex, target site 732; sense B cAuAuGAGuccAuGuGcuu TTB (SEQ 53); antisense AAGcAcAuGGAcucAuAuGUU (SEQ 54) (sense CAUAUGAGUCCAUGUGCUUTT; antisense AAGCACAUGGACUCAUAUGUU; sense: DNA at AGT, 2'-fluoro at CU, [invAb] at 5' end, 3' end, backbone not given here; antisense: sugars from the 5' end rrrfmfmfmmmfffmfmfmmm, backbone not given here) | −15.7 ± 1.8 | 75 ± 0.9% |
| 29948-DC: Bach1 siNA duplex, target site 1285; sense B GcGAGAAGuGGcAGAAcAc TTB (SEQ 45); antisense GUGuucuGccACuuCuCGcUU (SEQ 46) (sense GCGAGAAGUGGCAGAACACTT; antisense GUGUUCUGCCACUUCUCGCUU; sense: DNA at AGT, 2'-fluoro at CU, [invAb] at 5' end, 3' end, backbone not given here; antisense: sugars from the 5' end rrrffffmffmmffmfmmfmm, backbone not given here) | −16.3 ± 12.6 | 51.9 ± 3^ % |
| 29974-DC: Bach1 siNA duplex, target site 1739 (mouse); sense B GAGGuGAAGcuGccAuucA TTB (SEQ 97); antisense UGAAuGGcAGcuucAccucUU (SEQ 98) (sense GAGGUGAAGCUGCCAUUCATT; antisense UGAAUGGCAGCUUCACCUCUU; sense: DNA at AGT, 2'-fluoro at CU, [invAb] at 5' end, 3' end, backbone not given here; antisense: sugars from the 5' end rrrmfmmfmmffffmffffmm, backbone not given here) | −12 ± 6.9 | −4.3 ± 15.5% |
| 29980-DC: Bach1 siNA duplex, target site 1939 (mouse); sense B cGAGAAGcuGcAAAGuGAA TTB (SEQ 109); antisense UUCAcuuuGcAGcuucucGUU (SEQ 110) (sense CGAGAAGCUGCAAAGUGAATT; antisense UUCACUUUGCAGCUUCUCGUU; sense: DNA at AGT, 2'-fluoro at CU, [invAb] at 5' end, 3' end, backbone not given here; antisense: sugars from the 5' end rrrmffffmfmmffffffmmm, backbone not given here) | 49.2 ± 1.1 | 91.3 ± 0.9% |
